This is an account of results in patent publication US20210084902A1, “FUNGICIDAL MIXTURE COMPRISING SUBSTITUTED 3-PHENYL-5-(TRIFLUOROMETHYL)-1,2,4-OXADIAZOLES” (BASF SE, priority 2017, published 2021).

Holding throughout (format): cell-based
Assay [1] has as its system Botrytis cinerea. Kind of assay: Fungicidal activity against Botrytis cinerea, micro titer plate (MTP) test. The conditions noted are these: Botrytis cinerea, 168 h, read-out: Observed efficacy.
The test system of assay [2] is Colletotrichum orbiculare. Kind of assay: Fungicidal activity against Colletotrichum orbiculare in the microtiterplate test. The conditions noted are these: Colletotrichum orbiculare, read-out: Observed efficacy.
In assay [3] the test system is Leptosphaeria nodorum. The assay is described as follows: Fungicidal activity against Leptosphaeria nodorum, microtiter plate (MTP) test. The conditions noted are these: Parastagonospora nodorum, 168 h, read-out: Observed efficacy.
Assay [4] relates to Pyricularia oryzae. Kind of assay: microbe, parasite or virus in culture. Conditions: Pyricularia oryzae, 168 h, read-out: Observed efficacy.
In assay [5] the test system is Septoria tritici. The assay is described as follows: Fungicidal activity against Septoria tritici, micro titer plate (MTP) test. The conditions noted are these: Zymoseptoria tritici, 168 h, read-out: Observed efficacy.

The structures appear in SMILES notation. Read-outs that look alike come from different tables or passages of the source.

For `O=C1C2CC=CCC2C(=O)N1SC(Cl)(Cl)Cl` (stereo not drawn) [Captan, captan], the inhibition of growth at […] in assay [1] (component B alone, 0.25 ppm) amounted to 20%; in assay [2] (0.25 ppm), 21%; in assay [3] (0.25 ppm) it was 13%; in assay [5] (Table V.4, component B alone, 0.25 ppm), 22%. The figures for the inhibition of growth at 1 ppm in assay [1] (component B alone), in assay [3] and in assay [4] were 73%, 44% and 53%, respectively.

As to `O=C(Nc1ccccc1F)c1ccc(-c2noc(C(F)(F)F)n2)cc1` [I.E, N-(2-fluorophenyl)-4-[5-(trifluoromethyl)-1,2,4-oxadiazol-3-yl]benzamide], the inhibition of growth at […] in assay [1] (I.E alone, 0.063 ppm) stood at 2%; in assay [2] (0.25 ppm), 4%; in assay [5] (Table V.6, I.E alone, 0.25 ppm), 13%. Besides, the results for the inhibition of growth at 1 ppm in assay [1] (I.E alone), in assay [2] and in assay [4] were 2%, 4% and 5%, respectively. Besides, the inhibition of growth at 4 ppm was 2% in assay [1] (I.E alone); 11% in assay [2] (4 ppm); 5% in assay [4]; 7% in assay [5] (Table V.6, I.E alone). The inhibition of growth at 16 ppm in assay [1] (I.E alone) is 3%; in assay [2] (16 ppm), 52%; in assay [3], 18%; in assay [4], 6%; in assay [5] (Table V.6, I.E alone) it was 13%. For the same compound, the inhibition of growth at 63 ppm in assay [1] (I.E alone, 63 ppm) came out at 16%; in assay [3] (63 ppm) it was 22%; in assay [4], 9%; in assay [5] (Table V.6, I.E alone, 63 ppm) it was 14%.

Take `O=C1c2ccccc2C(=O)N1SC(Cl)(Cl)Cl` [Folpet, folpet]: the inhibition of growth at 1 ppm in assay [1] (component B alone) was 13%; in assay [2] it was 20%; in assay [3], 40%; in assay [4], 14%; in assay [5] (Table V.4, component B alone), 70%.

Consider `CNC(=O)c1ccc(-c2noc(C(F)(F)F)n2)cc1` [I.A, N-methyl-4-[5-(trifluoromethyl)-1,2,4-oxadiazol-3-yl]benzamide], for which the inhibition of growth at […] was 3% in assay [1] (I.A alone, 0.25 ppm); 2% in assay [2] (0.00025 ppm); 2% in assay [2] (0.016 ppm); 71% in assay [2] (0.063 ppm); 3% in assay [3] (0.063 ppm); 3% in assay [5] (Table V.7, I.A alone, 0.063 ppm). Moreover, the inhibition of growth at […] in assay [5] (Table V.7, I.A alone, 0.25 ppm) is 2%. Moreover, the inhibition of growth at 4 ppm in assay [1] (I.A alone) was determined as 1%; in assay [3] (4 ppm) it was 14%; in assay [4] it was 12%; in assay [5] (Table V.7, I.A alone), 8%. Further, the inhibition of growth at 16 ppm amounted to 12% in assay [1] (I.A alone); 27% in assay [3]; 38% in assay [4]; 19% in assay [5] (Table V.7, I.A alone). Further, in assay [2] (0.001 ppm), the inhibition of growth at 0.001 ppm worked out at 2%. In addition, the inhibition of growth at 0.004 ppm in assay [2] (0.004 ppm) was found to be 2%. The inhibition of growth at 1 ppm in assay [3] stood at 6%; in assay [4], 6%; in assay [5] (Table V.7, I.A alone), 0%.
